We go through one molecule from patent US10905680B2, “Methods of treatment for cholestatic and fibrotic diseases” (Genfit, priority 2016, dated 2021).

Experiment [1] concerns human primary hepatic stellate cells (hHSC). Briefly: COL1A1 transcripts in TGFβ1-induced human HSC (RT-qPCR). Type of experiment: cell-based. The conditions noted are these: TGFβ1 1 ng/ml, 24 hours. As to the method: Serum-deprived HSC were preincubated for 1 hour with NTZ (A) or TZ (B) before the activation with TGFβ1 (1 ng/ml). After 24 hours of incubation, the expression of COL1A1 was measured by RT-qPCR. Expression values were transformed into fold induction over TGFβ1 control. Data are presented as mean (triplicates)±standard deviation (SD). Statistical analyses were performed by one-way ANOVA followed by Bonferroni post-hoc tests, using Sigma Plot 11.0 software. [*: p<0.05; **: p<0.01; ***: p<0.001 (comparison versus TGFβ1 1 ng/mL group)]. The human primary hepatic stellate cells (hHSC) (Innoprot) were cultured under standard conditions, as described above. The cells were subsequently plated at a density of 7×10^4 cells/well into 24-well plates for gene expression studies, and at a density of 2×10^4 cells/well into 96-well plates for the measure of α-SMA by ELISA. The next day, cell culture medium was removed, and cells were washed with PBS (Invitrogen cat #14190). hHSC were deprived for 24 hours in serum-free and SteCGS-free medium. […] Quantitative PCR was then carried out using the MyiQ Single-Color Real-Time PCR Detection System (Biorad). […] Expression levels were determined using the standard curve equation for both the housekeeping gene and the target gene (taking into account the specific PCR efficiency of each target gene).

Experiment [2] concerns human renal interstitial fibroblasts (HRIF). The experiment in a line: TGFβ1-induced expression of α-SMA protein in human renal fibroblasts (ELISA). The conditions noted are these: TGFβ1 3 ng/ml, 48 hours. Type of experiment: cell-based. As to the method: Serum-deprived Human Renal Interstitial Fibroblasts (HRIF) were preincubated for 1 hour with NTZ (A) or TZ (B) before the activation with the profibrogenic cytokine TGFβ1 (3 ng/ml). After 48 hours of incubation, the expression of α-SMA was measured by ELISA. The obtained values were normalized over TGFβ1 control. Data are presented as mean (quadruplicates)±SEM (Standard Error of Mean). […] For the activation experiments with TGFβ1, the HRIF were plated at a density of 6.5×10^3 cells per well in 384-well plates. The next day, cell culture medium was removed, and cells were washed with PBS (Invitrogen cat #14190). HRIF were deprived for 24 hours in serum-free, and FGS-free medium. For the treatments with NTZ or TZ, the serum-deprived HRIF were preincubated for 1 hour with the compounds followed by addition of the profibrogenic stimuli TGFβ1 (PeproTech cat #100-21, 3 ng/mL) in serum-free, -FGS-free medium for an additional 48 hour period. Finally, the cells were washed with PBS (Invitrogen, cat #14190) before the addition of 30 μl of lysis buffer (CelLytic™ MT reagent; Sigma #C3228). Plates were then incubated for 30 min on ice using a plate shaker, and subsequently stored at −20° C. The level of α-SMA was measured using a Sandwich ELISA. Briefly, the wells of an ELISA plate were first coated with the capture antibody (mouse monoclonal anti-ACTA2, Abnova) at 4° C. overnight. […]
For orientation: ELISA stands for enzyme-linked immunosorbent assay.

As to `O=C(Nc1ncc([N+](=O)[O-])s1)c1ccccc1O` [TZ, 2-hydroxy-N-(5-nitro-2-thiazolyl)benzamide], the COL1A1 transcripts result in experiment [1] was “reduce”. The “antifibrotic effects (α-SMA) in TGFβ-activated human renal interstitial fibroblasts” value in experiment [2] was “significant and dose-dependent antifibrotic effects”.
